Test results from US12195771B2, “Combination chemotherapy for the treatment of cancer” (WISCONSIN ALUMNI RESEARCH FOUNDATION, priority 2017, dated 2025).

Experiments:
[1] = test system: human lung cancer cells (A549); test: Assay of cell viability with a single drug (tetrazolium dye-based MTS assay), A549; details: single agent, 48 h, value ± SE, n = 3
Method: To test this hypothesis, we treated human lung cancer cells for 48 h with trametinib or with three other kinase inhibitors: PD 0332991 (which is a CDK4/CDK6 inhibitor), bosutinib (which is a Src family kinase inhibitor), or crizotinib (which is an ALK inhibitor) (Boschelli et al., 2001; Fry et al., 2004; Zou et al., 2007). We measured cell viability with a tetrazolium dye-based assay for metabolic activity. The ensuing EC50 values are listed in a Table 1 and in the table in FIG. 10.
(§1) Cells in complete growth medium were plated at 5,000 cells per well in a 96-well microplate, which was incubated for 24 h. […] After 48 h, the medium was removed, and cells were incubated for 2 h with CellTiter 96® MTS reagent from Promega. Absorbance was recorded on an M1000 fluorimeter from Tecan (Morrisville, NC) at 490 nm. Data were analyzed with Prism 5.0 software from GraphPad (La Jolla, CA). Values of EC50, which is the concentration of a drug that gives half-maximal cell viability, were calculated with the equation: […]
(§2) where y is cell viability, x is the concentration of drug, and h is the Hill coefficient. Data were plotted on a log scale with each data point being the mean of 3 biological replicates.

[2] = test system: phosphorylation of MEK, ERK, RSK and RI in SK-MEL-28 cells; test: Immunoblotting and pull-down of biotinylated RI after kinase inhibitor treatment; format: cell-based, human; details: for phosphorylation of MEK / phosphorylation of ERK and RSK: SK-MEL-28, 24 h; for phosphorylation of MEK: bosutinib 5 μM, crizotinib 2 μM, PD 0332991 2 μM, selumetinib 10 nM, dabrafenib 10 nM, trametinib 1 nM; for phosphorylation of ERK and RSK: same inhibitor concentrations as FIG. 6; for phosphorylation of RI (α-pSer, α-pThr): biotinylated RI captured from SK-MEL-28 cells, 24 h inhibitor treatment
Method: FIGS. 6A-6B are immunoblots showing that inhibition of the ERK pathway prevents the phosphorylation of RI in SK-MEL-28 cells. Cells transfected to produce biotinylated RI were treated with bosutinib (5 μM), crizotinib (2 μM), PD 0332991 (2 μM), selumetinib (10 nM), dabrafenib (10 nM), or trametinib (1 nM) for 24 h. (A) Treatment with inhibitors of non-ERK pathway kinases has no effect on the phosphorylation of MEK, ERK, or RSK in cell lysates. Treatment with dabrafenib reduces the phosphorylation of MEK (α-pMEK ½ lane) as well as that of ERK and RSK (α-pERK ½, and α-pRSK lanes). Treatment with selumetinib and trametinib reduces the phosphorylation of ERK and RSK. (B) Treatment with inhibitors of non-ERK pathway kinases has no effect on phosphorylation of biotinylated RI, which was captured by using streptavidin-coated magnetic beads. Inhibition of ERK-pathway kinases diminishes phosphorylation of RI (α-pThr, and α-pSer lanes).
The inventors further confirmed the apparent effect of kinase inhibitors on RI phosphorylation by immunoblotting. Biotinylated RI was isolated by using streptavidin-coated magnetic beads from SK-MEL-28 cells after transient transfection for 48 h. To detect phosphorylated species, we used α-pSer or α-pThr. […] These biochemical data provide direct evidence that kinases in the ERK pathway are indeed responsible for phosphorylating RI, in agreement with the observed synergism.
Cells grown in a 10-cm dish were lysed with 1 mL of M-PER™ Mammalian Protein Extraction Reagent (a mammalian protein extraction reagent that contains a mild, nondenaturing detergent) containing PIERCE™ Protease Inhibitor Tablets (tablets containing protease inhibitors AEBSF, aprotinin, bestatin, E-64, leupeptin, and pepstatin A), PIERCE™ Phosphatase Inhibitor Tablets (sodium fluoride, sodium orthovanadate, sodium pyrophosphate, and beta-glycerophosphate for broad-spectrum inhibition of phosphatase activity), and DTT (1 mM). Cell lysates were subjected to centrifugation for 10 min at 14,000 g to remove cell debris, and the total protein concentration in the supernatant was determined with a Bradford protein assay. Protein (˜30 μg) was separated by SDS-PAGE using a gel from Biorad (Hercules, CA), and the resulting gel was subjected to transfer to a PVDF membrane with an IBLOT® 2 (a dry transfer device that performs western blotting transfer without the need for liquid buffers) dry transfer system. The membrane was blocked for 1 h in a solution of BSA (5% w/v) in TBS-Tween (TBS-T), washed, and then incubated overnight at 4° C. with an antibody (1:500 dilution) in TBS-T containing BSA (5% w/v). After another wash with TBS-T, membranes were incubated with secondary antibody (1:3000 dilution), washed again, and then detected with an Amersham ECL Select Western Blotting Detection Reagent and by an ImageQuant™ LAS4000 instrument from GE Healthcare (Marlborough, MA).
For pull-down assays, after isolation of the total protein, samples were incubated overnight at 4° C. with Streptavidin […]® (magnetic particles coated with streptavidin) Paramagnetic Particles from Promega. The beads were washed (3×) with PBS containing 1 mM DTT. Samples were eluted with 50 μL of SDS gel-loading dye and processed further for immunoblotting.

[3] = test system: human A549 lung cancer cells; test: Assay of cell viability with two drugs (kinase inhibitor + ptRNase), A549; format: cell-based; details: for Synergism with ptRNase?: A549 cells, two-drug combination with ptRNase
Method: We measured cell viability with a tetrazolium dye-based assay for metabolic activity.
We used the EC50 values obtained from single-drug treatment (Table 1) to design subsequent drug combination experiments. Two-drug combination experiments were performed using a 5×5 matrix to interrogate 25 concentration ratios per combination.
(§3) The EC50 values obtained from single-drug cell viability assays were used to design subsequent drug combination experiments. Two-drug combination experiments were performed by using a 5×5 matrix in 96-well plates to interrogate 25 dosing pairs. Cells in complete growth medium were plated at 5,000 cells per well in a 96-well microplate, which was incubated for 24 h at 37° C. […] After 48 h, cell viability was evaluated as described above.
(§4) The dose-effect curve for each drug was determined based on experimental observations and was compared to the effect afforded by the two-drug combination to derive a CI value. The CI values for all combinations were calculated using CalcuSyn 2.0 from Biosoft (Cambridge, UK). […] Each CI value was the mean of the results from 3 biological replicates.

G12C variant of KRAS = G12C variant of KRAS (Homo sapiens, UniProt P01116, G12C); details: Patricelli et al., 2016, Lito et al.; cited from earlier work
G12C variant of KRAS, sequence (P01116 1-188 isoform P01116-2 G12C): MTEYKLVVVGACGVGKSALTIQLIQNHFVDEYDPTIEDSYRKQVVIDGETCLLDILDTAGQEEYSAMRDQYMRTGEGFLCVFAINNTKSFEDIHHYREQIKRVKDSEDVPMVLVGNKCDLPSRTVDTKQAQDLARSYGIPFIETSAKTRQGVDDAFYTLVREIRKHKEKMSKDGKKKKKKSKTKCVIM

H358 cells (KRAS G12C) [4] = test: Assay of cell viability with two drugs (ARS-853 + ptRNase), H358; format: cell-based, human; details: 5×5 matrix, CI (FIG. 4C)
Method: as §3, §4

V600E/K variants of BRAF = details: Kefford et al., 2010; King et al., 2013; cited from earlier work
[5] = test system: human melanoma cells (SK-MEL-28, A375, Malme-3M); test: Assay of cell viability with two drugs, melanoma cell lines; format: cell-based; details: across three melanoma cell lines (FIG. 5)
Method: None of the agents were toxic to normal skin fibroblasts at the tested doses (FIG. 10).
as §3, §4

H358 cells (KRAS G12C) [6] = test: Assay of cell viability with a single drug (MTS assay), H358; format: cell-based, human
Method: as §1, §2

| Molecule | EC50 ([1]; Homo sapiens) [µM] | phosphorylation of MEK [2] | phosphorylation of ERK and RSK [2] | phosphorylation of RI (α-pSer, α-pThr) [2] | Synergism with ptRNase? [3] | other results |
| --- | --- | --- | --- | --- | --- | --- |
| COc1cc(Nc2c(C#N)cnc3cc(OCCCN4CCN(C)CC4)c(OC)cc23)c(Cl)cc1Cl [Bosutinib] | 0.73 ± 0.06 |  |  |  |  |  |
| C[C@@H](Oc1cc(-c2cnn(C3CCNCC3)c2)cnc1N)c1c(Cl)ccc(F)c1Cl [Crizetinib] | 0.11 ± 0.02 | insignificant effects | insignificant effects | Strong bands for phosphorylated RI |  |  |
| C=CC(=O)N1CC(N2CCN(C(=O)CNc3cc(C4(C)CC4)c(Cl)cc3O)CC2)C1 [ARS-853] |  |  |  |  | Yes | cellular inhibitory activity against the G12C variant of KRAS (G12C variant of KRAS): robust cellular inhibitory activity; EC50 [1]: 74 ± 8 µM; synergy with the ptRNase judged by combination index (CI) ([3]; A549, 5×5 concentration matrix, kinase inhibitor 1 h then ptRNase, 48 h): additive effect; effect of combination with the ptRNase (H358 cells (KRAS G12C) [4]): enhanced the efficacy of both agents |
| CC(C)(C)c1nc(-c2cccc(NS(=O)(=O)c3c(F)cccc3F)c2F)c(-c2ccnc(N)n2)s1 [Dabrafenib] | 40 ± 5 | only a weak band of phosphorylated MEK | no detectable phosphorylation | no detectable phosphorylation | Yes | inhibitory activity against the V600E/K variants of BRAF (V600E/K variants of BRAF): robust inhibitory activity; effect of combination with trametinib (without ptRNase) [5]: additive effect; synergy of combination with the ptRNase [5]: strong synergy |
| R4C/G38R/R39G/N67R/G89R/S90R/V118C RNase 1 (protein, UniProt P07998 29-156, looked up, variant R4C G38R R39G N67R G89R S90R V118C, gift from Quintessence Biosciences) Ribonuclease pancreatic: KESCAKKFQRQHMDSDSSPSSSSTYCNQMMRRRNMTQRGCKPVNTFVHEPLVDVQNVCFQEKVTCKRGQGNCYKSNSSMHITDCRLTNRRRYPNCAYRTSPKERHIIVACEGSPYVPCHFDASVEDST |  |  |  |  |  | EC50 [1]: 62 ± 7 µM; EC50 (H358 cells (KRAS G12C) [6]; H358 cells (KRAS G12C), single agent, mean ± SEM, n = 3): 3.6 ± 0.6 µM; cytotoxicity to H358 cells compared to A549 cells (H358 cells (KRAS G12C) [6]; H358 versus A549): 20 fold |

Now from value to molecule, other results behind:

| EC50 ([1]; Homo sapiens) [µM] | Molecule | phosphorylation of MEK [2] | phosphorylation of ERK and RSK [2] | phosphorylation of RI (α-pSer, α-pThr) [2] | Synergism with ptRNase? [3] | other results |
| --- | --- | --- | --- | --- | --- | --- |
| 0.24 ± 0.04 | CC(=O)c1c(C)c2cnc(Nc3ccc(N4CCNCC4)cn3)nc2n(C2CCCC2)c1=O [PD 0332991] | insignificant effects | insignificant effects | Strong bands for phosphorylated RI | No |  |
| 5.7 ± 0.6 | CC(=O)Nc1cccc(-n2c(=O)n(C3CC3)c(=O)c3c(Nc4ccc(I)cc4F)n(C)c(=O)c(C)c32)c1 [Trametinib] |  |  |  |  |  |
| 43 ± 5 | Cn1cnc2c(F)c(Nc3ccc(Br)cc3Cl)c(C(=O)NOCCO)cc21 [Selumetinib] |  |  |  |  |  |
